# From patent US11447523B2, “Methods for reducing CD36 expression” (Cornell Research Foundation, Inc., priority 2005, dated 2022)
# “Also recorded” adds a separate entry of the source. Square brackets hold non-standard residues; d marks the D form. Ends that are not written are not given here.
# Tests used:
# [1] = system: CD36 knock-out mice subjected to acute cerebral ischemia; test: Acute cerebral ischemia in CD36 knockout mice; assay type: in vivo, mouse; settings: CD36 KO mice
# Protocol: CD36 knockout (CD36 KO) mice were subjected to acute cerebral ischemia as described under Example 2. CD36 KO mice were given either saline vehicle (Veh) (ip, n=5) or SS-31 (2 mg/kg, i.p. n=5) at 0, 6, 24 and 48 h after 30 min ischemia.
# [2] = system: mouse peritoneal macrophages; test: oxLDL-induced foam cell formation (oil red O) in macrophages; assay type: cell-based; settings: SS-31 1 μM, oxLDL 48 h
# Source text: Foam cell is indicated by oil red O which stains lipid droplets red.
# [3] = system: CD36; test: CD36 protein expression by western blot in mouse peritoneal macrophages; assay type: cell-based; settings: P<0.01
# Source text: Other controls included CD36 expression from mouse heart (H) and macrophages obtained from CD36 knockout mice (KO). The amount of CD36 protein was normalized to β-actin.
# [4] = system: CD36; test: CD36 mRNA (real time PCR) in post-ischemic brain of wild-type mice; assay type: in vivo, mouse; settings: WT mice, SS-31 5 mg/kg ip at 0 and 6 h after 30 min ischemia
# Protocol: Wild-type mice were given saline vehicle (Veh, i.p., n=6) or SS-31 (5 mg/kg, i.p., n=6) at 0 and 6 h after 30 min ischemia, and CD36 mRNA levels were determined using real time PCR.
# [5] = system: wild-type mice subjected to acute cerebral ischemia; test: Acute cerebral ischemia (30 min middle cerebral artery occlusion) in wild-type mice; assay type: in vivo, mouse; settings: WT mice
# Protocol: Cerebral ischemia was induced by occlusion of the right middle cerebral artery for 30 min. Wild-type (WT) mice were given either saline vehicle (Veh) (ip, n=19) or SS-31 (2 mg/kg or 5 mg/kg, ip, n=6) at 0, 6, 24 and 48 h after ischemia. Mice were killed 3 days after ischemia. Brains were removed, frozen, and sectioned. Brain sections were stained by the Nissl stain. Infarct volume and hemispheric swelling was determined using an image analyzer. Data were analyzed by one-way ANOVA with posthoc analysis.
# (*P<0.05 compared to Veh).
# [6] = system: CD36; test: oxLDL-induced CD36 mRNA expression in mouse peritoneal macrophages; assay type: cell-based
# Protocol: CD36 expression is regulated at the transcriptional level by various cellular stimuli, including glucose and oxLDL. Macrophages were harvested from mice peritoneal cavity and culture overnight in the absence or presence of oxLDL (50 μg/ml) for 48 h.
# [7] = system: isolated guinea pig hearts; test: Isolated hearts: lipid peroxidation, endothelial apoptosis and coronary flow after cold ischemia and warm reperfusion; settings: 1 nM SS-31 or 100 nM SS-20 in St. Thomas solution; for HNE staining (lipid peroxidation) in stored hearts / endothelial apoptosis in stored hearts / coronary flow restored, of pre-ischemic flow: 18 h at 4° C., 90 min reperfusion; for coronary flow restored, of pre-ischemic flow: pre-ischemic control = 100%; for coronary flow (in words): 18 h cold ischemia, warm reperfusion
# Protocol: Guinea pig hearts were perfused with a cardioplegic solution (St. Thomas solution) alone or St. Thomas solution containing either 1 nM SS-31 or 100 nM SS-20 for 3 min. and then subjected to 18 hours of cold ischemia (4° C.). The hearts were then reperfused with Krebs Henseleit buffer at 34° C. for 90 min. Immunohistochemical analysis of 4-hydroxynonenol (HNE)-modified proteins in paraffin sections from tissue slices were performed by incubation with an anti-HNE antibody (Santa Cruz) and a fluorescent secondary antibody. […] HNE staining was reduced in hearts stored in SS-31 (FIG. 13C) or SS-20 (FIG. 13D).
# Guinea pig heats were perfused with a cardioplegic solution (St. Thomas solution) alone or St. Thomas solution containing either 1 nM SS-31 or 100 nM SS-20 for 3 min. and then subjected to 18 hours of cold ischemia (4° C.). The hearts were then reperfused with Krebs Henseleit buffer at 34° C. for 90 min. After deparaffinization, sections were incubated with deoxynucleotidyl transferase (Tdt) with digoxigenin-dNTP for 1 hour. The reaction was stopped with terminating buffer. A fluorescent anti-digoxigenin antibody was then applied.
# A significant improvement of coronary blood flow after prolonged cold ischemic storage and warm reperfusion occurred (FIG. 15). Guinea pigs hearts were perfused with a cardioplegic solution (St. Thomas solution) alone or St. Thomas solution containing either 1 nM SS-31 (FIG. 15A) or 100 nM SS-20) (FIG. 15B) for 3 min. and then subjected to 18 hours of cold ischemia (4° C.). The hearts were then reperfused with Krebs Henseleit buffer at 34° C. for 90 min.
# [8] = system: obstructed kidney after UUO; test: Kidney damage after unilateral ureteral obstruction (HNE, TUNEL, ED1 macrophages, Masson's trichrome); assay type: in vivo, Sprague-Dawley rats; settings: rats, SS-31 1 mg/kg ip one day before UUO and daily for 14 days
# Protocol: Rats were then killed, kidneys removed, embedded in paraffin and sectioned. Slides were incubated with anti-HNE rabbit IgG and a biotin-linked anti-rabbit IgG was used as secondary antibody. The slides were developed with DAB. Lipid peroxidation, which was increased by UUO, was reduced by SS-31 treatment (FIG. 8).
# Rats were then killed, kidneys removed, embedded in paraffin and sectioned. To quantitate nuclei with fragmented DNA, the TUNEL assay were performed with in situ TUNEL kit (Intergen, Purchase, N.Y.). Slides were developed with DAB and counterstained with 10% hematoxylin.
# Rats were treated with either saline (n=6) or SS-31 (1 mg/kg ip, n=6) one day prior to induction of UUO, and once a day for 14 days after UUO. Rats were then killed, kidneys removed, embedded in paraffin and sectioned. Slides were treated with monoclonal antibody for ED1 macrophage (1:75; Serotec). Horseradish-peroxidase-linked rabbit anti-mouse secondary antibody (Dako) was used for macrophage detection. Sections were then counterstained with 10% hematoxylin.
# Rats were treated with either saline (n=6) or SS-31 (1 mg/kg ip, n=6) one day prior to induction of UUO, and once a day for 14 days after UUO. Rats were then killed, kidneys removed, embedded in paraffin and sectioned. Slides were stained with hematoxylin and eosin and Masson's trichome for interstitial fibrosis (blue stain).
# [9] = system: CD36; test: CD36 immunostaining in isolated hearts after cold ischemic storage and warm reperfusion; parameters: species or system guinea pig; settings: 1 nM SS-31 or 100 nM SS-20 in St. Thomas solution, 18 h at 4° C., 90 min reperfusion at 34° C.
# Protocol: Isolated guinea pig hearts were perfused with St. Thomas solution alone, or St. Thomas solution containing 1 nM SS-31 or 100 nM SS-20, for 3 min. and then stored in the same solution at 4° C. for 18 hours. After ischemic storage, hearts were reperfused with 34° C. Kreb-Henseleit solution for 90 min. Hearts freshly isolated from guinea pigs were used as controls.
# The hearts were fixed in paraffin and sliced for immunostaining with an anti-CD36 rabbit polyclonal antibody. Two sections are shown for each treatment group. […] The “background” (FIGS. 12A and 12B) represents two sections from a normal non-ischemic heart that was not treated with the primary antibody. “Normal heart” (FIGS. 12C and 12D) represents two sections obtained from a non-ischemic heart.
# [10] = system: mouse peritoneal macrophages; test: oxLDL-induced apoptosis of macrophages; assay type: cell-based; settings: SS-31 1 nM concurrent with oxLDL (oxLDL alone 32.8%, no oxLDL 6.7%)
# Protocol: Incubation of macrophages with oxLDL increased apoptotic cells from 6.7% to 32.8%.
# [11] = system: CD36; test: CD36 immunostaining on renal tubular cells after unilateral ureteral obstruction (UUO); assay type: in vivo, Sprague-Dawley rats; settings: rats, SS-31 1 mg/kg ip one day before UUO and daily for 14 days
# Protocol: UUO was performed in Sprague-Dawley rats. The rats were treated with saline (ip, n=6) or SS-31 (1 mg/kg ip, n=6) one day prior to induction of UUO, and once a day for 14 days after UUO. Rats were killed, kidneys removed, embedded in paraffin and sectioned. The slides were treated with the anti-CD36 polyclonal IgG (Santa Cruz #sc-9154; 1:100 with blocking serum) at room temperature for 1.5 hours. The slides were then incubated with the second antibody conjugated with biotin (anti-rabbit IgG-G1; ABC kit, PK-6101) at room temperature for 30 min. The slides were then treated with avidin, developed with DAB and counterstained with 10% hematoxylin. The contralateral unobstructed kidney served as the control for each animal.
# [12] = system: diabetic mice; test: Streptozotocin (STZ)-induced diabetic mice, renal damage; assay type: in vivo, CD-1 mice
# Protocol: Streptozotocin (STZ) was used to induce diabetes in mice. Three groups of CD-1 mice were studied. Group I—no STZ treatment; Group II—STZ (50 mg/kg, ip) was given once a day for 5 d; Group III—STZ (50 mg/kg, ip) was given once a day for 5 d, and SS-31 (3 mg/kg, ip) was given once a day for 16 d. […] By week 3, blood glucose values were: Group I (10.6.noteq.0.27 mmol/L); Group II (24.5.noteq.1.15 mmol/L); Group III (21.3 1.48 mmol/L). Animals were sacrificed after 3 weeks and kidney tissues preserved for histopathology. Kidney sections were examined by Periodic Schiff (PAS) staining for renal tubular brush border.
# In mice not treated with STZ, the renal brush border in the cortex was stained red with PAS (FIG. 16A, see white arrows).
# Kidney sections were examined for apoptosis using the TUNEL assay. After deparaffinization, sections were incubated with deoxynucleotidyl transferase (Tdt) with digoxigenin-dNTP for 1 hour. The reaction was stopped with terminating buffer. A fluorescent anti-digoxigenin antibody was then applied.
# [13] = SS-31 2 mg/kg ip at 0, 6, 24, 48 h, vs saline
# [14] = SS-31 2 mg/kg or 5 mg/kg ip at 0, 6, 24, 48 h after ischemia, vs saline, P<0.05
substance,measurement,setting,value
D-Arg-2′6′Dmt-Lys-Phe-NH2 [SS-31],GSH depletion in the ipsilateral cortex,[1]; SS-31 2 mg/kg ip,failed to further prevent GSH depletion; also recorded: did not reduce GSH depletion
same,hemispheric swelling,[1]; [13],no effect
same,infarct volume,[1]; [13],no effect in reducing infarct volume
same,oxLDL-induced foam cell formation,[2],prevented oxLDL-induced foam cell formation; also recorded: reduced
same,oxLDL-induced upregulation of CD36 protein expression,"[3]; SS-31 1 μM concurrent with 25 μg/ml oxLDL, 48 h",significantly inhibited the upregulation of CD36 protein expression; also recorded: reduced
same,CD36 protein expression versus vehicle control,"[3]; SS-31 1 μM, no oxLDL, normalized to β-actin",significantly reduced CD36 protein expression
same,CD36 mRNA in the ipsilateral brain,[4],significantly reduced; also recorded: reduced CD36 mRNA expression
same,depletion of GSH in the striatum,"[5]; SS-31 2 mg/kg ip at 0, 6, 24, 48 h",reduced by SS-31 treatment but did not reach statistical significance
same,depletion of GSH in the ipsilateral cortex,"[5]; SS-31 2 mg/kg ip at 0, 6, 24, 48 h, 2 mg/kg",significantly reduced; also recorded: reduced the decrease in reduced glutathione (GSH)
same,hemispheric swelling,[5]; [14],significant reduction; also recorded: reduced
same,infarct volume,[5]; [14],significant reduction in infarct volume; also recorded: reduced infarct volume
same,oxLDL-induced up-regulation of CD36 mRNA,"[6]; SS-31 10 nM or 1 μM, oxLDL 50 μg/ml, 48 h",abolished the up-regulation of CD36; also recorded: reduced oxLDL-induced CD36 mRNA expression
same,"CD36 expression, peptide by itself","[6]; SS-31 alone, without oxLDL",had no effect on CD36 expression
same,HNE staining (lipid peroxidation) in stored hearts,[7],reduced
same,endothelial apoptosis in stored hearts,[7],Apoptotic cells were not observed
same,"coronary flow restored, of pre-ischemic flow",[7],approximately 80%
same,coronary flow (in words),[7],preserves coronary flow
same,tubular dilation,[8],Tubular dilation was also observed
same,number of apoptotic cells (TUNEL) in obstructed kidney,"[8]; P<0.001, 1 mg/kg",significantly reduced; also recorded: reduced tubular cell apoptosis
same,interstitial fibrosis in obstructed kidney,"[8]; P<0.05, 1 mg/kg",significantly less fibrosis; also recorded: reduced interstitial fibrosis
same,macrophage infiltration (ED1) in obstructed kidney,"[8]; P<0.05, 1 mg/kg",significantly reduced; also recorded: reduced macrophage infiltration
same,lipid peroxidation (HNE stain) in obstructed kidney,"[8]; vs saline, 1 mg/kg",significantly less HNE stain; also recorded: reduces lipid peroxidation
same,CD36 staining in stored hearts,[9],significantly reduced; also recorded: did not show the upregulation of CD36 expression
same,percentage of apoptotic cells induced by oxLDL,[10],20.8%
same,CD36 expression on tubular cells of obstructed kidney,[11],significant reduction in CD36 expression; also recorded: suppresses the upregulation of CD36; also recorded: decreases CD36 expression
same,blood glucose by week 3,"[12]; Group III: STZ 50 mg/kg ip 5 d + SS-31 3 mg/kg ip daily 16 d (STZ alone 24.5, no STZ 10.6)",21.3 mmol/L
same,effect on blood glucose (in words),"[12]; STZ mice, SS-31 3 mg/kg ip daily",without affecting blood glucose
same,architecture of the proximal renal tubules,"[12]; STZ mice, SS-31 3 mg/kg ip daily, 3 weeks",architecture of the proximal renal tubules was preserved
same,apoptotic cells in proximal tubule (TUNEL),"[12]; STZ mice, SS-31 3 mg/kg ip daily, 3 weeks, 3 mg/kg",dramatically reduced apoptotic cells in the proximal tubule; also recorded: inhibit tubular cell apoptosis; also recorded: significantly reduced
F[dR]FK-NH2 [SS-20],HNE staining (lipid peroxidation) in stored hearts,[7],reduced
same,endothelial apoptosis in stored hearts,[7],Apoptotic cells were not observed
same,"coronary flow restored, of pre-ischemic flow",[7],approximately 80%
same,coronary flow (in words),[7],preserves coronary flow
same,CD36 staining in stored hearts,[9],significantly reduced; also recorded: did not show the upregulation of CD36 expression
